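Cultured in 96-well plates, cells were exposed to test compound for 48 hours across five concentrations. TGI marks complete inhibition of growth.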
Key:
Experiment in all cases: NCI anticancer screen, dose series, 48 h
SK-MEL-5 melanoma = system: SK-MEL-5 melanoma
HCC-2998 colon = system: HCC-2998 colon
MDA-MB-231 breast = system: MDA-MB-231 breast
K-562 leukemia = system: K-562 leukemia
MALME-3M melanoma = system: MALME-3M melanoma
KM12 colon = system: KM12 colon
HCT-15 colon = system: HCT-15 colon
HOP-62 NSCLC = system: HOP-62 NSCLC
HOP-92 NSCLC = system: HOP-92 NSCLC
NCI-H23 lung = system: NCI-H23 lung
HCT-116 colon = system: HCT-116 colon
SK-MEL-28 melanoma = system: SK-MEL-28 melanoma
COLO 205 colon = system: COLO 205 colon
SK-MEL-2 melanoma = system: SK-MEL-2 melanoma
UACC-62 melanoma = system: UACC-62 melanoma
T-47D breast = system: T-47D breast
NCI-H522 lung = system: NCI-H522 lung
RPMI-8226 leukemia = system: RPMI-8226 leukemia
EKVX NSCLC = system: EKVX NSCLC
NCI-H460 lung = system: NCI-H460 lung
BT-549 breast = system: BT-549 breast
DU-145 prostate = system: DU-145 prostate
RXF 393 renal = system: RXF 393 renal
M14 melanoma = system: M14 melanoma
NCI-H226 lung = system: NCI-H226 lung
HS 578T breast = system: HS 578T breast
SW-620 colon = system: SW-620 colon
OVCAR-5 ovarian = system: OVCAR-5 ovarian
UO-31 renal = system: UO-31 renal
IGROV1 ovarian = system: IGROV1 ovarian
HT29 colon = system: HT29 colon
PC-3 prostate = system: PC-3 prostate
SF-268 CNS = system: SF-268 CNS
OVCAR-3 ovarian = system: OVCAR-3 ovarian
ACHN renal = system: ACHN renal
786-0 renal = system: 786-0 renal
TK-10 renal = system: TK-10 renal
U251 CNS = system: U251 CNS
OVCAR-8 ovarian = system: OVCAR-8 ovarian
MDA-MB-435 = system: MDA-MB-435
A549 NSCLC = system: A549 NSCLC
SR leukemia = system: SR leukemia
SNB-19 CNS = system: SNB-19 CNS
SK-OV-3 ovarian = system: SK-OV-3 ovarian
MDA-N = system: MDA-N
NCI/ADR-RES ovarian = system: NCI/ADR-RES ovarian
SF-295 CNS = system: SF-295 CNS
MOLT-4 leukemia = system: MOLT-4 leukemia
SF-539 CNS = system: SF-539 CNS
CAKI-1 renal = system: CAKI-1 renal
SN12C renal = system: SN12C renal
UACC-257 melanoma = system: UACC-257 melanoma
CCRF-CEM leukemia = system: CCRF-CEM leukemia
MCF7 breast = system: MCF7 breast
SNB-75 CNS = system: SNB-75 CNS
A498 renal = system: A498 renal
OVCAR-4 ovarian = system: OVCAR-4 ovarian
LOX IMVI melanoma = system: LOX IMVI melanoma
HL-60(TB) leukemia = system: HL-60(TB) leukemia

Measured: TGI

Oc1ccccc1/C=N/N1C(=S)N(C23CC4CC(CC(C4)C2)C3)C(=Nc2ccccc2)C1=Nc1ccccc1
> 100 µM: SK-MEL-5 melanoma | HCC-2998 colon | MDA-MB-231 breast | K-562 leukemia | MALME-3M melanoma | KM12 colon | HCT-15 colon | HOP-62 NSCLC | HOP-92 NSCLC | NCI-H23 lung | HCT-116 colon | SK-MEL-28 melanoma | COLO 205 colon | SK-MEL-2 melanoma | UACC-62 melanoma | T-47D breast | NCI-H522 lung | RPMI-8226 leukemia | EKVX NSCLC | NCI-H460 lung | BT-549 breast | DU-145 prostate | RXF 393 renal | M14 melanoma | NCI-H226 lung | HS 578T breast | SW-620 colon | OVCAR-5 ovarian | UO-31 renal | IGROV1 ovarian | HT29 colon | PC-3 prostate | SF-268 CNS | OVCAR-3 ovarian | ACHN renal | 786-0 renal | TK-10 renal | U251 CNS | OVCAR-8 ovarian | MDA-MB-435 | A549 NSCLC | SR leukemia | SNB-19 CNS | SK-OV-3 ovarian | MDA-N | NCI/ADR-RES ovarian | SF-295 CNS | MOLT-4 leukemia | SF-539 CNS | CAKI-1 renal | SN12C renal | UACC-257 melanoma

CCOC(=O)c1c(SCc2cc(=O)[nH]c(=O)[nH]2)n(-c2ccccc2)c(=S)n(-c2ccccc2)c1=O
> 100 µM: SK-MEL-5 melanoma | HCC-2998 colon | CCRF-CEM leukemia | MDA-MB-231 breast | MCF7 breast | K-562 leukemia | MALME-3M melanoma | KM12 colon | HCT-15 colon | HOP-62 NSCLC | HCT-116 colon | SK-MEL-28 melanoma | COLO 205 colon | SK-MEL-2 melanoma | UACC-62 melanoma | T-47D breast | RPMI-8226 leukemia | EKVX NSCLC | NCI-H460 lung | BT-549 breast | DU-145 prostate | RXF 393 renal | M14 melanoma | SW-620 colon | OVCAR-5 ovarian | SNB-75 CNS | UO-31 renal | IGROV1 ovarian | HT29 colon | PC-3 prostate | SF-268 CNS | OVCAR-3 ovarian | ACHN renal | 786-0 renal | TK-10 renal | U251 CNS | OVCAR-8 ovarian | MDA-MB-435 | A549 NSCLC | SNB-19 CNS | MDA-N | A498 renal | NCI/ADR-RES ovarian | MOLT-4 leukemia | SF-539 CNS | CAKI-1 renal | SN12C renal | UACC-257 melanoma

CN(C)/N=N/c1nc2c(c(=O)n(C)c(=O)n2C)n1CC1CO1 (stereo not given)
61.7 µM: SK-OV-3 ovarian
56.4 µM: PC-3 prostate
37.5 µM: DU-145 prostate
56.9 µM: SF-295 CNS
69.4 µM: A549 NSCLC
43.9 µM: UACC-257 melanoma
59.7 µM: SK-MEL-28 melanoma
24 µM: HCT-116 colon
> 100 µM: CCRF-CEM leukemia | OVCAR-5 ovarian | HL-60(TB) leukemia | MOLT-4 leukemia
35.2 µM: U251 CNS
33.6 µM: SF-268 CNS
37.7 µM: TK-10 renal
29.1 µM: HCT-15 colon
22.5 µM: SF-539 CNS
52.7 µM: BT-549 breast
23.7 µM: LOX IMVI melanoma
34.4 µM: HOP-62 NSCLC
31.3 µM: UO-31 renal
25.3 µM: HCC-2998 colon
36.8 µM: SW-620 colon
57.9 µM: EKVX NSCLC
36.7 µM: OVCAR-8 ovarian
46.7 µM: MDA-N | SN12C renal
29.9 µM: IGROV1 ovarian
35.6 µM: MDA-MB-435
29.7 µM: NCI-H522 lung
38.3 µM: NCI-H226 lung
50.7 µM: KM12 colon
31.4 µM: OVCAR-3 ovarian
35.1 µM: HT29 colon
41.1 µM: NCI/ADR-RES ovarian
41.9 µM: ACHN renal
21.7 µM: NCI-H460 lung
24.8 µM: UACC-62 melanoma
23.1 µM: SK-MEL-2 melanoma
38.9 µM: CAKI-1 renal
68.1 µM: MDA-MB-231 breast
93.1 µM: RPMI-8226 leukemia
26.1 µM: MCF7 breast
43.6 µM: SNB-75 CNS
27.3 µM: COLO 205 colon
29.4 µM: OVCAR-4 ovarian
15.8 µM: RXF 393 renal
25.1 µM: MALME-3M melanoma | NCI-H23 lung
78.2 µM: SNB-19 CNS
25.5 µM: SK-MEL-5 melanoma
80 µM: T-47D breast
32.6 µM: M14 melanoma
57.5 µM: 786-0 renal
60.2 µM: K-562 leukemia

O=C(c1ccco1)N(C(=O)N1CCC(c2ccccc2)CC1)c1ccccc1
85 µM: KM12 colon
54.2 µM: MOLT-4 leukemia
> 100 µM: CCRF-CEM leukemia | MDA-MB-231 breast | MCF7 breast | K-562 leukemia | MALME-3M melanoma | HCT-15 colon | NCI-H23 lung | HCT-116 colon | SK-MEL-28 melanoma | COLO 205 colon | SK-MEL-2 melanoma | UACC-62 melanoma | EKVX NSCLC | BT-549 breast | DU-145 prostate | M14 melanoma | NCI-H226 lung | HS 578T breast | SW-620 colon | OVCAR-5 ovarian | LOX IMVI melanoma | IGROV1 ovarian | HT29 colon | PC-3 prostate | SF-268 CNS | OVCAR-3 ovarian | ACHN renal | 786-0 renal | TK-10 renal | U251 CNS | OVCAR-8 ovarian | MDA-MB-435 | SNB-19 CNS | SK-OV-3 ovarian | MDA-N | A498 renal | SF-539 CNS | CAKI-1 renal | SN12C renal | UACC-257 melanoma
46.2 µM: SNB-75 CNS
65.9 µM: HL-60(TB) leukemia
83.8 µM: UO-31 renal
60 µM: RPMI-8226 leukemia
90.9 µM: RXF 393 renal
64.2 µM: T-47D breast
51.5 µM: SK-MEL-5 melanoma
91 µM: NCI/ADR-RES ovarian

Source: PubChem BioAssay (NCI)
